Columns and labels:
[1] = system: Ren (+/PM) cells; experiment: Ren cell aggregation assay; assay type: cell-based; conditions: 125Val plus 563Asn PECAM-1 transfected, agent added to cell suspension at two concentrations, 90 rpm, 37° C., 20 minutes, FIG. 4
Method: (§1) FIG. 4 depicts the results of a Ren cell aggregation assay. About 2×10^6 of Ren cells, Ren (−), Ren (+/WT) and Ren (+/PM), were seeded in a T75 flask and cultured for 48 hours for aggregation assays. The monodispersed Ren cells suspension (10^6 cells/ml in HBSS with 1 mM CaCl2) were prepared. Next, two concentrations of anti-PECAM-1 antibody (JHS-7) (A), and human rcPECAM-1 (B) were added in. Then, cells were transfected to wells in a 24-well tissue culture tray (1 mL per well) and rotated on a gyratory shaker (at 90 rpm) at 37° C. for 20 minutes. Data are expressed as the percent of total cells present in aggregates. *P<0.05, **P<0.01.
(§2) A variation of aggregation assay of Takeichi (59) was adopted. Briefly, confluent culture of Ren cells were detached and dispersed and resuspended to about 10^6 cells/ml in HBSS (37° C.) with 1 mM CaCl2. One ml cell aliquots were transfected to wells in a 24-well plate and rotated on a gyratory shaker (At 90 rpm) at 37° C. for 20 minutes, then stopped by addition of glutaraldehyde to a final concentration of 2%. Aggregation was quantified by examining representative aliquot of equal volumes from each sample on a hemacytometer grid under phase contrast optics. Cells remaining as single cells or present in aggregates (≧3 cells clots) were counted in nine squares. Data are expressed as the percent of total cells present in aggregates.

[2] = system: Ren (+/WT) cells; experiment: Ren cell aggregation assay; assay type: cell-based; conditions: wild type PECAM-1 transfected, agent added to cell suspension at two concentrations, 90 rpm, 37° C., 20 minutes, FIG. 4
Method: as §1, §2

recombinant human PECAM-1 protein: Soluble recombinant PECAM-1 (95˜98 KDa, containing only the extracellular domains), purchased from R&D Systems (Cat# ADP6C)
effect on Ren cell aggregation (percent of total cells present in aggregates) [1]: attenuated the aggregation | effect on Ren cell aggregation (percent of total cells present in aggregates) [2]: attenuated the aggregation
